US20170037118A1, “Methods for treating and/or limiting development of diabetes” (Biocrine AB, priority 2013, published 2017)

Tested on: 12-weeks-old ob/ob islets
Assay: Caspase 3/7 activity assay (apoptosis)
Format: cell-based, mouse
Conditions: β-cells from 12-weeks old ob/ob mice incubated overnight with the Ca2+-channel blocker
Description: ApoCIII expression was measured by real-time qPCR to determine the efficacy of apoCIII knockdown in cultured islets (n=4). […] (c) 25 mM KCl was used to induce depolarization and subsequent Ca^2+ influx (n=9-10). (d) Caspase 3/7 activity in ob/ob islets isolated from animals at 4-, 8- and 12-weeks of age (n=4). (e) Decrease in caspase activity in β-cells from 12-weeks old ob/ob mice either incubated overnight with the Ca^2+-channel blocker verapamil (left column) or exposed to apoCIII antisense (right column) (n=4). Data presented as mean±SEM. *P<0.05, ** P<0.01 by student's t-test or ANOVA (Tukey's post-hoc).
Caspase assay. Activity of capase 3/7 was determined using SensoLyte™ Homogeneous Rh110 Caspase 3/7 assay kit according to manufacturer's instructions, with modifications (AnaChem, USA). Briefly, islets or cells were harvested, lysed using lysis buffer (AnaChem, USA) and the protein quantified using BCA method. 10 μg of protein was loaded in a black 384-well plate and topped up with the appropriate amount of assay buffer (AnaChem, USA) containing Rh110 Caspase 3/7 Substrate. Plate was incubated in the dark for 1 hour at 24° C. Fluorescence intensity at Ex/Em=490/520nm was measured to determine the relative caspase activity.
It was determined if reducing endogenous apoCIII affects apoptosis in ob/ob islets. […]

With `COc1ccc(CCN(C)CCCC(C#N)(c2ccc(OC)c(OC)c2)C(C)C)cc1OC` (stereo not shown) [verapamil] as the compound, how does the “reduction of caspase activity” value read?
The value was 15%.
